Reference: PubChem BioAssay (NCI)
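Interpolation was linear, between the two tested concentrations surrounding the appropriate level; five concentrations were tested over 48 hours in 96-well plates. GI50 marks 50% less growth. TGI is the concentration that stops growth completely.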

Legend:
Experiment in all cases: NCI tumour cell line growth inhibition, 48 h
OVCAR-3 ovarian = system: OVCAR-3 ovarian
SK-MEL-5 melanoma = system: SK-MEL-5 melanoma
SNB-19 CNS = system: SNB-19 CNS
MDA-MB-231 breast = system: MDA-MB-231 breast
SK-MEL-28 melanoma = system: SK-MEL-28 melanoma
SK-MEL-2 melanoma = system: SK-MEL-2 melanoma
HCC-2998 colon = system: HCC-2998 colon
SF-295 CNS = system: SF-295 CNS
OVCAR-5 ovarian = system: OVCAR-5 ovarian
NCI-H522 lung = system: NCI-H522 lung

Row | SMILES | TGI (OVCAR-3 ovarian) [µM] | TGI (SK-MEL-5 melanoma) [µM] | TGI (SNB-19 CNS) [µM] | TGI (MDA-MB-231 breast) [µM] | TGI (SK-MEL-28 melanoma) [µM] | TGI (SK-MEL-2 melanoma) [µM] | TGI (HCC-2998 colon) [µM] | TGI (SF-295 CNS) [µM] | TGI (OVCAR-5 ovarian) [µM] | TGI (NCI-H522 lung) [µM] | GI50 (HCC-2998 colon) [µM] | GI50 (OVCAR-5 ovarian) [µM]
1 | CN(C)Cc1cc(C(=O)/C=C/c2cccc(Cl)c2)cc(CN(C)C)c1O | 9.21 | 6.92 | 69.9 | 8.87 | 17.1 | 26 | 23.8 | 27 | 19 | 33 | – | –
2 | Cc1ccc(S(=O)(=O)c2ccc([N+](=O)[O-])o2)cc1 | 3.71 | 23 | 40.4 | 4.78 | 3.81 | 28.7 | 13.1 | 43.9 | 4.77 | 0.578 | – | –
3 | O=C(O)c1cc(Cl)cc2c1NC1(N2)C(=O)Nc2ccccc21 (configuration not stated) | > 100 | > 100 | > 100 | > 100 | > 100 | > 100 | > 100 | > 100 | > 100 | > 100 | – | –
4 | CSCCCNC(=O)c1csc(-c2csc(CCNC(=O)CNC(=O)CNC(=O)CNC(=O)OC(C)(C)C)n2)n1 | > 100 | > 100 | > 100 | > 100 | > 100 | > 100 | > 100 | > 100 | > 100 | > 100 | – | –
5 | CCn1c2ccc(O)c(C(=O)OC)c2c2cc3ccccc3c(O)c21 | 47.3 | 38.5 | > 100 | > 100 | 87.4 | 36.6 | 38.3 | 64.5 | 73.3 | 41.2 | – | –
6 | Nc1ccc(-c2nc3ccc(F)cc3s2)cc1 | 64.4 | 37.8 | > 100 | 64 | > 100 | 39.6 | 45.3 | 60.7 | 73.6 | > 100 | 17.8 | 27.2
7 | Cc1cc(C)c2c(=N)c3ccccc3n(CCCCCCO)c2n1 | 25.9 | 8.16 | 18.9 | 15.1 | 33 | 9.47 | 7.07 | 11.9 | 21.2 | 3.14 | – | –
8 | CNC(=S)N/N=C(\C)c1nc2ncccc2[nH]1 | 75.5 | > 100 | > 100 | > 100 | > 100 | > 100 | > 100 | > 100 | > 100 | > 73.3 | – | –
9 | CC1(C)CCCCCCCCCC(C)(CCCCCCCCCCCCO)C1=O (configuration not stated) | 29.4 | 35.3 | 26.1 | 29.9 | 32.6 | 32.7 | 13.7 | 30.4 | 34.1 | 30.3 | – | –
10 | C=C(Br)CNCC(=C)Br | > 100 | > 100 | > 100 | > 100 | > 100 | > 100 | > 100 | > 100 | > 100 | > 100 | – | –
11 | COc1cc(C(c2cccc3ccccc23)N2C(=O)CCC2C(=O)NCc2ccccc2)cc(OC)c1OC (configuration not stated) | > 100 | > 100 | > 100 | > 100 | > 100 | > 100 | > 100 | > 100 | > 100 | > 100 | – | –
12 | CC(C)(C)c1cc(C(=O)/C=C/c2ccn[nH]2)cc(C(C)(C)C)c1O | 7.39 | 20.1 | 9.91 | 3.97 | 11.7 | 3.43 | 3.37 | 28.1 | 13.6 | 2.73 | – | –
13 | C/C=C/[C@H]1O[C@@](O)([C@@H](C)[C@H](O)[C@H](C)[C@H]2OC(=O)/C(OC)=C/C(C)=C/[C@@H](C)[C@@H](O)[C@@H](CC)[C@@H](O)[C@H](C)C/C(C)=C/C=C/[C@@H]2OC)C[C@H](OC2CC(O)C(OC(N)=O)C(C)O2)[C@@H]1C (some centres not stated) | 17.2 | 0.231 | 23.7 | 22.7 | 20.4 | 3.22 | 18.6 | 0.893 | 25.7 | 7.39 | – | –
14 | COc1nc(OC)nc(-c2cccc(F)c2)n1 | 27.7 | 29.8 | 32.4 | 30 | 39.6 | 38.6 | 28.2 | 30 | 28.5 | 42.4 | – | –
15 | CC(=O)CC(C)(C)NC(=O)[C@@]1(O)CC[C@H]2[C@@H]3CCC4=CC(=O)CC[C@@H]4[C@H]3CC[C@@]21C | > 100 | > 100 | > 100 | > 100 | > 100 | > 100 | > 100 | > 100 | > 100 | > 100 | – | –
16 | OC(CCN1CCN(CCOC(c2ccccc2)c2ccccc2)CC1)c1ccc(Br)cc1 (configuration not stated) | 28 | 12.6 | 30.3 | 25.3 | 22.8 | 25.6 | 3.96 | 29.8 | 28.3 | 29.4 | – | –
17 | C=CC(C)(C)c1cc([C@@H]2COc3cc(O)ccc3C2=O)c(O)c(O)c1OC | 29.3 | 41.1 | 49 | 57.5 | 67.2 | 45.8 | > 100 | > 100 | > 100 | 38.1 | – | –
18 | COc1cc(OC)c2c(O)c(S(=O)(=O)c3ccc(C)cc3)c(=O)oc2c1 | > 100 | > 100 | > 100 | > 100 | > 100 | > 100 | > 100 | > 100 | > 100 | > 100 | – | –
19 | O/N=C1/C2CC3CC1(c1ccccc1)CC(/C3=N/O)/C2=N\O (configuration not stated) | > 100 | > 100 | > 100 | > 100 | > 100 | > 100 | > 100 | > 100 | > 100 | > 100 | – | –
20 | CC(NNC(=O)c1ccncc1)c1ccc(Cl)c(Cl)c1 (configuration not stated) | > 100 | > 100 | > 100 | > 100 | > 100 | > 100 | > 100 | > 100 | > 100 | > 100 | – | –
21 | CCOC(=O)C(NC(=O)CC)(Nc1ccc(S(=O)(=O)Nc2nc(C)cc(C)n2)cc1)C(F)(F)F (configuration not stated) | > 100 | > 100 | > 100 | > 100 | > 100 | > 100 | > 100 | > 100 | > 100 | > 100 | – | –
22 | N#Cc1c(Nc2nc3ccccc3s2)c2ccccc2n2c1nc1ccccc12 | > 100 | > 100 | > 100 | > 100 | > 100 | > 100 | > 100 | > 100 | > 100 | > 100 | – | –
23 | ONC1=Nc2ccccc2OCc2cc(Br)c(Br)cc2COc2ccccc2N=C1NO | > 48.1 | 30.4 | 24.2 | 35.5 | > 57.5 | 38.7 | 31.8 | > 53.6 | 42.8 | 41.9 | – | –
24 | CCOC(=O)c1c(N2CCOCC2)[nH]c(=O)c(C(c2cccs2)c2c(O)c(C(=O)OCC)c(N3CCOCC3)[nH]c2=O)c1O | > 100 | > 100 | > 100 | > 100 | > 100 | > 100 | > 100 | > 100 | > 100 | > 100 | – | –
25 | S=C(N/N=C\c1ccccn1)N(Cc1ccccn1)Cc1ccccn1 | > 48.7 | 16.8 | 21.9 | > 49 | > 49.7 | 37.9 | > 43.1 | 16.3 | 63.9 | 33.1 | – | –
26 | N#CC12C(=O)N3C(=NC(c4ccccc4)NC3c3ccccc3)C1(C#N)C(c1ccccc1)NC1=C2CCCC1 (configuration not stated) | > 100 | > 100 | > 100 | > 100 | > 100 | > 100 | > 100 | > 100 | > 100 | > 100 | – | –
27 | CN(CCc1ccc(Cl)c(Cl)c1)CCN(C)CCN1CCCC1 | 70.4 | 7.75 | 43.3 | 23 | 3.34 | 10 | 4.5 | 32.4 | 43.3 | 20.9 | – | –
28 | CCOC(=O)/C(C#N)=C(/NNc1ccccc1)c1ccncc1C(=O)O | > 100 | > 48.9 | > 100 | > 100 | > 100 | > 100 | > 95.6 | > 100 | > 100 | > 100 | – | –
29 | Cc1cc(S(=O)(=O)Nc2nc3ccccc3n2-c2ccccc2)c(S)cc1Cl | > 100 | > 100 | > 100 | > 100 | > 100 | > 100 | > 100 | > 100 | > 100 | > 100 | – | –
30 | Cc1cc(O)ccc1C1(c2ccc(F)cc2)OC(=O)c2ccccc21 (configuration not stated) | 0.882 | 24.3 | 15.4 | 26.3 | 25.8 | 17.4 | 15.3 | 14.2 | 20.1 | 15.6 | – | –
